Columns and labels:
potassium arsenate = compound: O=[As]([O-])(O)O.[K+] [potassium arsenate]; assay: thermal stability z-score vs DMSO; higher = more thermally stabilized by treatment; details: HeLa; arsenate concentration 1 mM
Description: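 Cellular thermal proteome profiling in HeLa cells treated with 1 mM arsenate for 1 h (DMSO pretreatment), heated to ten temperatures (37-66.3 °C). Soluble protein was quantified by TMT mass spectrometry relative to DMSO controls; the thermal stability score was transformed to a z-score; mean of n = 3 experiments.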

lipoamide = compound: NC(=O)CCCCC1CCSS1 [lipoamide]; assay: as above; details: HeLa, lipoamide concentration 100 µM
Description: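 Cellular thermal proteome profiling in HeLa cells. Cells were treated with 100 µM lipoamide for 1 h, with or without 1 mM arsenate for a further 1 h, then heated to ten temperatures (37-66.3 °C), and soluble protein was quantified by TMT mass spectrometry relative to 0.1% DMSO controls. The thermal stability score (sum of log2 fold changes minus the abundance score) was transformed to a z-score; mean of n = 3 experiments.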

[1] = arsenate co-treatment: 1 mM arsenate 1 h
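Note: each temperature applied for 3 min, abundance score taken as mean log2 fold change at the two lowest temperatures, z-score obtained by mean subtraction and division by SD.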

Chain of UniProt Q07666 (Q07666 whole entry): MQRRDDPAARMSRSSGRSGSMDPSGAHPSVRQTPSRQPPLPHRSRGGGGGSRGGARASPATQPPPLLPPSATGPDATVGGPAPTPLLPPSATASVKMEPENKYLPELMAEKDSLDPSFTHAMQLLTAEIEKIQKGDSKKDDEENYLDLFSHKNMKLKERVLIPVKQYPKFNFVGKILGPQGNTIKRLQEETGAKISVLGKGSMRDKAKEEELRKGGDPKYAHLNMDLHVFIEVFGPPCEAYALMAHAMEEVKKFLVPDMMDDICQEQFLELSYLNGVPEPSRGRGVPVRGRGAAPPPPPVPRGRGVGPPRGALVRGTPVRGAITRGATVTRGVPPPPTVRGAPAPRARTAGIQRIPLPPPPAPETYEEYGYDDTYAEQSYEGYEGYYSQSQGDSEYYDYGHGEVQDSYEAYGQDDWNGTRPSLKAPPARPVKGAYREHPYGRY
Chain of UniProt P61586 (P61586 whole entry): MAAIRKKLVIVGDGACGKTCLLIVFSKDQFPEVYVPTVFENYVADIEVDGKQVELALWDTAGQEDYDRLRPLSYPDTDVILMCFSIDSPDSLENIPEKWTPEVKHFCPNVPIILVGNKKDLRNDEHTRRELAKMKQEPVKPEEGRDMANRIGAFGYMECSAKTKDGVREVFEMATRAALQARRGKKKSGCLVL
Chain of UniProt Q9NQH7 (Q9NQH7 whole entry, looked up): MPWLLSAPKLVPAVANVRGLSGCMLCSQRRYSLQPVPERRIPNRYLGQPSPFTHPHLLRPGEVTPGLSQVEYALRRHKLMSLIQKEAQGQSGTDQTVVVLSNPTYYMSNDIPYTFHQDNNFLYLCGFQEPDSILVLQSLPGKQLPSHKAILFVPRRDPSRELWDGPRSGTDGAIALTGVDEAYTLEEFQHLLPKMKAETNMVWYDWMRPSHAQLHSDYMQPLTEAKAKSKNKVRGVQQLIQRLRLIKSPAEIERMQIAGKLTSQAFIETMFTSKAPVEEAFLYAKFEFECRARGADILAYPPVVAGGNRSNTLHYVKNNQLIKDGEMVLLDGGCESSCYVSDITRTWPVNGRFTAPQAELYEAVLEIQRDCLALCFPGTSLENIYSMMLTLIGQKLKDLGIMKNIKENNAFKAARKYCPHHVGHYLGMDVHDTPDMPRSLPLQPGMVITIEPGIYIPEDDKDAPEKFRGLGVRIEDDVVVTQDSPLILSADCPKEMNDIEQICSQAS
Chain of UniProt P37837 (P37837 whole entry): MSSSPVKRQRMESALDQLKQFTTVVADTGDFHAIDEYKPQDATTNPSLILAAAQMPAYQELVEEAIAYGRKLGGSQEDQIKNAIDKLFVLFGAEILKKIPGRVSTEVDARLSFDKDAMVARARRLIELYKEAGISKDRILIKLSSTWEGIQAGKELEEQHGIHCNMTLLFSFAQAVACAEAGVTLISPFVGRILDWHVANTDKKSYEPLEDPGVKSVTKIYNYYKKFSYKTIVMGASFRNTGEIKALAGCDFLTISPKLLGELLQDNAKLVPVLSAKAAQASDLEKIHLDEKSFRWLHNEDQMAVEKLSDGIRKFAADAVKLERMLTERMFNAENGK
Chain of UniProt P42226 (P42226 whole entry): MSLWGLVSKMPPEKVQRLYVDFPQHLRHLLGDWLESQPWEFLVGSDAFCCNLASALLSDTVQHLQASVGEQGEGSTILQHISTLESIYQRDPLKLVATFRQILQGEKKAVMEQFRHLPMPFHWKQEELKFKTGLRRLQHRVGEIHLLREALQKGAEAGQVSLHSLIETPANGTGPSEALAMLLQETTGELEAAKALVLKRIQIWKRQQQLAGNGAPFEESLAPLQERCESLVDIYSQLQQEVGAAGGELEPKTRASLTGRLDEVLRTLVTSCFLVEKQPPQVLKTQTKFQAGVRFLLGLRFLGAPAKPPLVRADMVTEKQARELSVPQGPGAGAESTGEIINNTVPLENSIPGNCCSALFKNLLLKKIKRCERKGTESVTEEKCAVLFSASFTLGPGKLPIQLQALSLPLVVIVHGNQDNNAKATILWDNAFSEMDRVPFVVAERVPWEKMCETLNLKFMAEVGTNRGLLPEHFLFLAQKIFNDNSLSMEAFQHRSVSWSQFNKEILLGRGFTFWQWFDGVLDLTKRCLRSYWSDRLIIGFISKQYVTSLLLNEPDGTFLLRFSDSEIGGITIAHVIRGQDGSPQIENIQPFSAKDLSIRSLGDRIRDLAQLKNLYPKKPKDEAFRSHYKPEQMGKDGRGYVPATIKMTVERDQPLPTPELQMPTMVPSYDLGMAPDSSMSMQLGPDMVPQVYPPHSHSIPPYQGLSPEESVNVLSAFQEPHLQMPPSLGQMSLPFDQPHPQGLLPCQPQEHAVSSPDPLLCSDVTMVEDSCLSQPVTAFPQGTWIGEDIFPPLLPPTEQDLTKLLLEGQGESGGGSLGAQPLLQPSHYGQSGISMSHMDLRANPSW
Chain of UniProt P78310 (P78310 whole entry): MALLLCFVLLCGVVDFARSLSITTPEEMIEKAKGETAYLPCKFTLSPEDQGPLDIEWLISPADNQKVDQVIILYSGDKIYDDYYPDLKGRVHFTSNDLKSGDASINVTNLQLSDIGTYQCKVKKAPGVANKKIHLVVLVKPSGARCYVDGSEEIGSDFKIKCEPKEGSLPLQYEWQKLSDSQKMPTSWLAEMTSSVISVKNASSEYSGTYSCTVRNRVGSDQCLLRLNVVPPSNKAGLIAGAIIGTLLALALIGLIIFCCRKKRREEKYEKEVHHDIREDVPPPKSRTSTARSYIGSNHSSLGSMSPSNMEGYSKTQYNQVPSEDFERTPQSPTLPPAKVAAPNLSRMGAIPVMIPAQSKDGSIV
Chain of UniProt Q9Y3L5 (Q9Y3L5 whole entry): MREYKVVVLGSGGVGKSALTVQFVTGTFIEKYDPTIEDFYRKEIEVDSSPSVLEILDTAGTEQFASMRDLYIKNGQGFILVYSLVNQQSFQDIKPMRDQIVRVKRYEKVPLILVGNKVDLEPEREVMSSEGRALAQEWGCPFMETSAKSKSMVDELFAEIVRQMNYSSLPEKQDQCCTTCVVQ
Chain of UniProt Q8N1F8 (Q8N1F8 whole entry): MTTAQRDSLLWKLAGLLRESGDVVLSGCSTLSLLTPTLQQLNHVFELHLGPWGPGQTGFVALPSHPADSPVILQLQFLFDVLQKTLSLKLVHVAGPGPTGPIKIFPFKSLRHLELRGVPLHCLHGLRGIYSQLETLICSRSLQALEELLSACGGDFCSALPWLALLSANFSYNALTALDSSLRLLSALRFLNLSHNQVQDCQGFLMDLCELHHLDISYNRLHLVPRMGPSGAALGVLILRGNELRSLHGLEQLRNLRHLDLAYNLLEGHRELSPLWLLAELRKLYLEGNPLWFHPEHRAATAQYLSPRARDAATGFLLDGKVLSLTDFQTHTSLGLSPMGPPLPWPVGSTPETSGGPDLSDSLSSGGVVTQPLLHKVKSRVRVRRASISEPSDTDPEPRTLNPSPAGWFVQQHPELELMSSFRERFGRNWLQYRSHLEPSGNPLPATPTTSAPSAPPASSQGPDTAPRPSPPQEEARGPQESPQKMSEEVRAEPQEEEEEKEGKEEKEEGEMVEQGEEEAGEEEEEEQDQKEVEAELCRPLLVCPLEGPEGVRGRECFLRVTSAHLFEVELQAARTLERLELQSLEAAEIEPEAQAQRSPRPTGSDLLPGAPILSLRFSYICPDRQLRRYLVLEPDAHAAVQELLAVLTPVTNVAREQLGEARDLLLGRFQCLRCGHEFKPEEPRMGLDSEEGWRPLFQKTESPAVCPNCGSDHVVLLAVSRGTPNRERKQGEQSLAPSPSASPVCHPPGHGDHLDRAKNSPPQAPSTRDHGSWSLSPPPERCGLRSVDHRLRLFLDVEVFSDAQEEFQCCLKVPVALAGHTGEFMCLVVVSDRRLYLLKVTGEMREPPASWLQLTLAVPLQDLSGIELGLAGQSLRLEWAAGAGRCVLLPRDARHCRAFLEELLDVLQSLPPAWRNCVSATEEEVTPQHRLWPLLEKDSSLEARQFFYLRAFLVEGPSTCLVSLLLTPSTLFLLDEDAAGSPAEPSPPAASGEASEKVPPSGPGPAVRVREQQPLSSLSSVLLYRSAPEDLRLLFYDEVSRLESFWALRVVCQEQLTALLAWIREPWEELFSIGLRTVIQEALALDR
Chain of UniProt Q96H79 (Q96H79 whole entry): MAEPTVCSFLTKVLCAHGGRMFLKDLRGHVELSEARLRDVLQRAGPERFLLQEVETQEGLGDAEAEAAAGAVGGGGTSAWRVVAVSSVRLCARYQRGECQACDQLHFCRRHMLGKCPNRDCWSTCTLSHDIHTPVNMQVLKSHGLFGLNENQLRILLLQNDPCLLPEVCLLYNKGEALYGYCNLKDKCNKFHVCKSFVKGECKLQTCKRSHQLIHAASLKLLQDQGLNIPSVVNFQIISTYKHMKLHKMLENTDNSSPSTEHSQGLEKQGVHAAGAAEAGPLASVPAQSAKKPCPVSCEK
Chain of UniProt Q9BT78 (Q9BT78 whole entry): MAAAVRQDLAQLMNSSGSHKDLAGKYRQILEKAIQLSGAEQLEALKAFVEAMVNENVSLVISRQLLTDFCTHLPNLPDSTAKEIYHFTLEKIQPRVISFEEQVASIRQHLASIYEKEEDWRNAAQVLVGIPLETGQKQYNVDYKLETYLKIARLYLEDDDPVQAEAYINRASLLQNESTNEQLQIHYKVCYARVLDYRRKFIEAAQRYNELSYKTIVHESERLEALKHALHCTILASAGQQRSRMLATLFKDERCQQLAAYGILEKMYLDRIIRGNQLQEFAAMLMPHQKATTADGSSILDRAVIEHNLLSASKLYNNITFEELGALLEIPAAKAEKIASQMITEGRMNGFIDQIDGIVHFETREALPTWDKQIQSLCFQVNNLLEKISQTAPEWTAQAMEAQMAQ
Chain of UniProt Q8WUX2 (Q8WUX2 whole entry): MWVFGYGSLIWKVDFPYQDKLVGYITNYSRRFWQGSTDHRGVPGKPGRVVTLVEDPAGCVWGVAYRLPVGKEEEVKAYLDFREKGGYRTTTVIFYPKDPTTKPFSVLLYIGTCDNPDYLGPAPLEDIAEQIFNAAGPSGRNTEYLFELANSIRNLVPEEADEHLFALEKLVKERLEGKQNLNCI

Target	thermal stability z-score (potassium arsenate)	thermal stability z-score (lipoamide; [1])	thermal stability z-score (lipoamide; arsenate co-treatment: none)
ALDOA (UniProt P04075)	-0.488	0.281	0.0525
COPS4 (UniProt Q9BT78)	-0.453	0.298	-0.0548
PRMT5 (UniProt O14744)	-0.408	0.459	0.231
CLYBL (UniProt Q8N0X4)	0.695	0.208	0.433
DNAJC25 (UniProt Q9H1X3)	0.282	-1.46	-0.0502
CDKN2A	0.466	0.99	1.64
CKAP5 (UniProt Q14008)	0.286	-0.095	-0.0102
DDX20 (UniProt Q9UHI6)	-0.763	-0.457	-0.527
KRR1 (UniProt Q13601)	-0.512	-0.00732	0.0711
PGM1 (UniProt P36871)	-0.103	-0.181	-0.205
PSMG3 (UniProt Q9BT73)	0.28	0.436	-0.0166
ATAD3A (UniProt Q9NVI7)	0.401	-0.137	0.337
GGH (UniProt Q92820)	0.317	0.661	0.64
CYP1B1 (UniProt Q16678)	-0.0983	0.0413	0.0132
FXR1 (UniProt P51114)	0.794	0.487	0.714
CPLX1 (UniProt O14810)	-0.346	0.844	1.45
RANGAP1 (UniProt P46060)	1.77	0.0948	0.327
KCMF1 (UniProt Q9P0J7)	0.636	-0.251	-0.483
MRPS24 (UniProt Q96EL2)	-0.497	-0.239	-0.0199
GALT (UniProt P07902)	0.174	-0.362	-0.325
CMBL (UniProt Q96DG6)	-0.162	0.865	0.482
DOCK6 (UniProt Q96HP0)	-0.391	-0.406	-0.347
STK11IP (UniProt Q8N1F8)	0.324	-0.747	-0.512
CXORF56 (UniProt Q9H5V9)	-3.91	0.162	-0.0486

Target	thermal stability z-score (potassium arsenate)	thermal stability z-score (lipoamide; [1])	thermal stability z-score (lipoamide; arsenate co-treatment: none)
TBC1D9B (UniProt Q66K14)	-0.401	-0.357	-0.158
UBAP2 (UniProt Q5T6F2)	-0.47	0.26	-0.00688
IWS1 (UniProt Q96ST2)	0.949	-0.094	0.636
AP2M1 (UniProt Q96CW1)	0.0231	0.48	0.0269
HK2 (UniProt P52789)	0.715	-0.636	-0.168
RAD23A (UniProt P54725)	-0.142	0.0472	0.234
CSK (UniProt P41240)	-0.218	0.116	0.433
BTBD10 (UniProt Q9BSF8)	-0.162	0.00662	0.0899
ECE2 (UniProt P0DPD6)	-0.104	-0.0621	0.0487
RANBP2 (UniProt P49792)	1.49	-0.733	-0.425
TARBP2 (UniProt Q15633)	-0.00318	0.357	0.542
CBR4 (UniProt Q8N4T8)	0.168	-0.276	0.0911
CXADR (UniProt P78310)	0.0224	0.11	0.273
ALCAM (UniProt Q13740)	0.534	0.558	0.931
KIAA0907 (UniProt Q7Z7F0)	-0.94	-0.462	-1.09
ALAS1 (UniProt P13196)	-0.0697	0.0114	-0.0767
ZC2HC1A (UniProt Q96GY0)	-1.15	0.178	-0.306
POGK (UniProt Q9P215)	0.0895	0.0568	0.107
HMGB1 (UniProt P09429)	0.309	0.26	0.59
FBXO2 (UniProt Q9UK22)	0.0529	-0.743	0.137
STAT6 (UniProt P42226)	0.472	0.0546	-0.269
SDF2L1 (UniProt Q9HCN8)	0.265	-2.27	-1.73
KHDRBS1 (UniProt Q07666)	-1.16	-0.091	0.104
XPNPEP3 (UniProt Q9NQH7)	-0.646	-0.37	0.018

Target	thermal stability z-score (potassium arsenate)	thermal stability z-score (lipoamide; [1])	thermal stability z-score (lipoamide; arsenate co-treatment: none)
SNRNP40 (UniProt Q96DI7)	-0.213	0.383	-0.0333
NDUFA9 (UniProt Q16795)	0.475	0.188	0.112
CIT (UniProt O14578)	-0.76	0.342	-0.767
NOP9 (UniProt Q86U38)	-0.372	0.182	0.121
GTPBP6 (UniProt O43824)	0.043	0.0509	-0.133
USF1 (UniProt P22415)	0.149	0.0459	-0.169
DVL2 (UniProt O14641)	-0.113	-0.0654	-0.194
EIF3B (UniProt P55884)	0.472	-0.333	0.0629
RAB30 (UniProt Q15771)	0.498	-0.315	-0.0453
RAP2C (UniProt Q9Y3L5)	0.21	1.35	0.676
HDAC2 (UniProt Q92769)	-0.0176	4.76	4.53
RHOA (UniProt P61586)	0.103	0.316	0.411
EXOC6B (UniProt Q9Y2D4)	0.332	0.36	1.01
AKAP1 (UniProt Q92667)	0.73	0.866	0.652
CAPZA2 (UniProt P47755)	0.697	-0.00372	0.906
ZC3HAV1L (UniProt Q96H79)	0.0902	0.323	-0.218
TALDO1 (UniProt P37837)	0.839	0.471	0.557
ARL2 (UniProt P36404)	0.664	-0.405	-0.0766
TROVE2 (UniProt P10155)	-0.238	-0.23	-0.235
SF3A2 (UniProt Q15428)	-0.0497	-0.0843	-0.43
GPRC5A (UniProt Q8NFJ5)	0.816	0.158	-0.194
CHAC2 (UniProt Q8WUX2)	0.455	-0.0361	0.0338
PATL1 (UniProt Q86TB9)	-0.0875	-0.613	-0.623

From the supplement of paper PMC12463676, “Small-molecule dissolution of stress granules by redox modulation benefits ALS models” (Nature Chemical Biology, 2025)
